According to article PMC6572854, “Convergent allostery in ribonucleotide reductase” (Nature Communications, 2019):

Key:
[1] = molecular target: T1, NrdE (holo-NrdE; class Ib RNR alpha subunit) (Bacillus subtilis, UniProt P50620); experiment: crystal structure ([…] Å); assay type: binding; conditions: allosteric; I-site, displacing dAMP; presumed hydrolysis product of added ATP; with TTP and GDP or CDP
T1 construct: tagless full-length (C-terminal residue V700), His6-SUMO tag cleaved, E. coli BL21(DE3); holo form co-purifies with dAMP; monomer, I-dimer, S-dimer or filament depending on nucleotides

[2] = molecular target: T1, NrdE (holo-NrdE; class Ib RNR alpha subunit); experiment: crystal structure ([…] Å) and SAXS titration; assay type: binding; conditions: allosteric; M-site; 5 mM Mg-ATP with TTP and GDP; may have displaced GDP
[3] = molecular target: T1, NrdE (holo-NrdE; class Ib RNR alpha subunit); experiment: cryo-EM structure ([…] Å) and SAXS titration; assay type: binding; conditions: allosteric; S-site and I-site; 100 µM dATP, 1 mM CDP, 15 mM MgCl2, pH 7.6; dATP displaces co-purified dAMP at I-site
[4] = molecular target: T2, NrdEF (holo-NrdE + Mn-reconstituted NrdF) (Bacillus subtilis, UniProt P50620); experiment: cryo-EM structure ([…] Å); assay type: binding; conditions: allosteric; S-site and I-site of NrdE in NrdEF filament; 100 µM dATP, 1 mM CDP, 15 mM MgCl2, pH 7.6
T2 construct: tagless NrdE (SUMO tag cleaved) plus His6-tagged NrdF, E. coli host; alpha2beta2 asymmetric unit of filament; both nucleotide sites lie on NrdE; NrdF modelled only as C-terminal polyalanine peptide; with Ribonucleoside-diphosphate reductase subunit beta NrdF

[5] = molecular target: the molecule itself; experiment: SEC-SAXS; 80 µM wt holo-NrdE loaded, 250 µM TTP, 1 mM ATP, assay buffer with 1% glycerol, 4 °C; fit of the dataset to I-dimer, S-dimer and monomer in OLIGOMER
[6] = molecular target: T3, Bacillus subtilis NrdE C382S, tagless (Bacillus subtilis, UniProt P50620 1-700, C382S); experiment: SAXS titration; 0-20 µM Fe-NrdF titrated to 4 µM C382S holo-NrdE, 50 µM dATP, 1 mM CDP, assay buffer with 5% glycerol, 4 °C; singular value decomposition; conditions: both partners purified
T3 construct: NrdE, α subunit of the class Ib ribonucleotide reductase of Bacillus subtilis, with the catalytic cysteine C382 changed to serine; Used in all SAXS experiments where NrdF was added, to prevent changes in nucleotide concentrations (D1:p2); also called C382S holo-NrdE; C382S NrdE
T3 sequence: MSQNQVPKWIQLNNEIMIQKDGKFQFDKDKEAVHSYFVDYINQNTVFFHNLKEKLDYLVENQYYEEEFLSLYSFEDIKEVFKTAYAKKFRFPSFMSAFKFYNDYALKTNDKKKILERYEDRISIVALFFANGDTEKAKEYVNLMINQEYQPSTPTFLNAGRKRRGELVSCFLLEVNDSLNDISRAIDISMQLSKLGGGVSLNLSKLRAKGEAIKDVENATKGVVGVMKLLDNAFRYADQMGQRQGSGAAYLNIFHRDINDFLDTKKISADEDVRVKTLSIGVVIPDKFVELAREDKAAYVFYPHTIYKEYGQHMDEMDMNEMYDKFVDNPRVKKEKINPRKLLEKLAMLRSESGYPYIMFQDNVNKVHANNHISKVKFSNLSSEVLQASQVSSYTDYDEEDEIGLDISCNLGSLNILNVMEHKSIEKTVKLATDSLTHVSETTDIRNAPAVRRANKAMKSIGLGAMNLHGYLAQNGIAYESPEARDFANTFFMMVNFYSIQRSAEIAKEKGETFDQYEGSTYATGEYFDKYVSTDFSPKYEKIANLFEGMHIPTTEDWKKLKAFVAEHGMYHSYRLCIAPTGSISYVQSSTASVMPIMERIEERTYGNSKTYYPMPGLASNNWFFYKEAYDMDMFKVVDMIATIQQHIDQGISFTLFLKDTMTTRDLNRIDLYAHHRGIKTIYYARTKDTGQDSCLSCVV

[7] = molecular target: the molecule itself; experiment: SEC-SAXS; stoichiometric mixture of C382S holo-NrdE and NrdF with 1 mM ATP and 250 µM TTP, 4 °C
[8] = molecular target: T4, Bacillus subtilis class Ib ribonucleotide reductase alpha subunit NrdE, wild type, tagless (Bacillus subtilis, UniProt P50620 1-700); experiment: cryo-EM structure; 20 µM holo-NrdE with 20 or 40 µM Mn-reconstituted NrdF, 100 µM dATP, 1 mM CDP, diluted four-fold; NrdEF filament, 4.7 Å map; conditions: both partners purified
T4 construct: NrdE, alpha subunit of the class Ib ribonucleotide reductase of Bacillus subtilis; tagless after SUMO protease; also called apo-NrdE (dAMP-free)
T4 sequence: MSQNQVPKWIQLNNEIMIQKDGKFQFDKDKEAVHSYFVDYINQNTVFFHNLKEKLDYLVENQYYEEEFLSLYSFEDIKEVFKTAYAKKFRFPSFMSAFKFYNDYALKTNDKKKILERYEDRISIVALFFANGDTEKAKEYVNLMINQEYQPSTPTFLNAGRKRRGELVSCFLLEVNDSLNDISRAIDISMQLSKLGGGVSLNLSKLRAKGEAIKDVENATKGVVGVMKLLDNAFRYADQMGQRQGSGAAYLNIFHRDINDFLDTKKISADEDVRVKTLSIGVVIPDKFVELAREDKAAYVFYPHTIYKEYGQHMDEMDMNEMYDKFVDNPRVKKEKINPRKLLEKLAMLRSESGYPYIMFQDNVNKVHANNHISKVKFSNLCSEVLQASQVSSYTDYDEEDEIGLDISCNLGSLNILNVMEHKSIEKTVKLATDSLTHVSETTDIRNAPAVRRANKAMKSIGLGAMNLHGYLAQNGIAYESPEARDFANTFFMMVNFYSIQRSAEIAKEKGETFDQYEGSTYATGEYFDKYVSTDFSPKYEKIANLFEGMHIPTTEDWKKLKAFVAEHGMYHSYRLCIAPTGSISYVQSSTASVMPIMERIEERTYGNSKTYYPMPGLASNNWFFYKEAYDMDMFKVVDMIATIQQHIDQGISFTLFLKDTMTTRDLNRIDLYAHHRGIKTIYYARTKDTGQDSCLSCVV

## Nc1ncnc2c1ncn2[C@@H]1O[C@H](COP(=O)(O)OP(=O)(O)O)[C@@H](O)[C@H]1O [ADP]
[1]
  crystal structure (2.50, 2.55, 2.95 Å): Electron density at the I-site showed strong evidence for an ADP ligand displacing dAMP

## Nc1ncnc2c1ncn2[C@@H]1O[C@H](COP(=O)(O)OP(=O)(O)OP(=O)(O)O)[C@@H](O)[C@H]1O [ATP]
[2]
  crystal structure (2.50, 2.55 Å) and SAXS titration: we also observed nearby electron density for an ATP ligand with the adenine ring positioned

## Nc1ncnc2c1ncn2[C@H]1C[C@H](O)[C@@H](COP(=O)(O)OP(=O)(O)OP(=O)(O)O)O1 [dATP]
[3]
  cryo-EM structure (6 Å) and SAXS titration: For both filaments, excess density at the S-site was modeled as dATP
[4]
  cryo-EM structure (4.7 Å): a dATP molecule at each S- and I-site

B1: Bacillus subtilis class Ib ribonucleotide reductase NrdE (α subunit), wild type, tagless (enzyme)
chain: MSQNQVPKWIQLNNEIMIQKDGKFQFDKDKEAVHSYFVDYINQNTVFFHNLKEKLDYLVENQYYEEEFLSLYSFEDIKEVFKTAYAKKFRFPSFMSAFKFYNDYALKTNDKKKILERYEDRISIVALFFANGDTEKAKEYVNLMINQEYQPSTPTFLNAGRKRRGELVSCFLLEVNDSLNDISRAIDISMQLSKLGGGVSLNLSKLRAKGEAIKDVENATKGVVGVMKLLDNAFRYADQMGQRQGSGAAYLNIFHRDINDFLDTKKISADEDVRVKTLSIGVVIPDKFVELAREDKAAYVFYPHTIYKEYGQHMDEMDMNEMYDKFVDNPRVKKEKINPRKLLEKLAMLRSESGYPYIMFQDNVNKVHANNHISKVKFSNLCSEVLQASQVSSYTDYDEEDEIGLDISCNLGSLNILNVMEHKSIEKTVKLATDSLTHVSETTDIRNAPAVRRANKAMKSIGLGAMNLHGYLAQNGIAYESPEARDFANTFFMMVNFYSIQRSAEIAKEKGETFDQYEGSTYATGEYFDKYVSTDFSPKYEKIANLFEGMHIPTTEDWKKLKAFVAEHGMYHSYRLCIAPTGSISYVQSSTASVMPIMERIEERTYGNSKTYYPMPGLASNNWFFYKEAYDMDMFKVVDMIATIQQHIDQGISFTLFLKDTMTTRDLNRIDLYAHHRGIKTIYYARTKDTGQDSCLSCVV
notes: NrdE, α subunit of the class Ib ribonucleotide reductase of Bacillus subtilis; holo-NrdE carries the co-purified dAMP ligand, apo-NrdE is nucleotide-free; same polypeptide; also called wt apo-NrdE (dAMP-free)
[5]
  stoichiometry N: 2

B2: Bacillus subtilis class Ib ribonucleotide reductase NrdF (β subunit), His6-tagged, metal-reconstituted (enzyme)
chain: MTKIYDAANWSKHEDDFTQMFYNQNVKQFWLPEEIALNGDLLTWKYLGKNEQDTYMKVLAGLTLLDTEQGNTGMPIVAEHVDGHQRKAVLNFMAMMENAVHAKSYSNIFMTLAPTETINEVFEWVKQNKYLQKKAQMIVGLYKAIQKDDEISLFKAMVASVYLESFLFYSGFYYPLYFYGQGKLMQSGEIINLILRDEAIHGVYVGLLAQEIYNKQTEEKKAELREFAIDLLNQLYENELEYTEDLYDQVGLSHDVKKFIRYNANKALMNLGFDPYFEEEDINPIVLNGLNTKTKSHDFFSMKGNGYKKATVEPLKDDDFYFEDEKEQI
notes: NrdF, β subunit of the class Ib ribonucleotide reductase of Bacillus subtilis; Fe-NrdF was used in the subunit titration, Mn-NrdF in SEC-SAXS and cryo-EM; also called Fe-NrdF; Mn-NrdF; source: produced in a similar manner as NrdE but without the tag cleavage steps, purified; reconstituted with Fe(III)2-Y• or Mn(III)2-Y•, MonoQ
[6]
  stoichiometry N: ~1 NrdF per NrdE (subunits)

B3: Bacillus subtilis class Ib ribonucleotide reductase beta subunit NrdF, His6-tagged, metal-reconstituted (enzyme)
chain: MTKIYDAANWSKHEDDFTQMFYNQNVKQFWLPEEIALNGDLLTWKYLGKNEQDTYMKVLAGLTLLDTEQGNTGMPIVAEHVDGHQRKAVLNFMAMMENAVHAKSYSNIFMTLAPTETINEVFEWVKQNKYLQKKAQMIVGLYKAIQKDDEISLFKAMVASVYLESFLFYSGFYYPLYFYGQGKLMQSGEIINLILRDEAIHGVYVGLLAQEIYNKQTEEKKAELREFAIDLLNQLYENELEYTEDLYDQVGLSHDVKKFIRYNANKALMNLGFDPYFEEEDINPIVLNGLNTKTKSHDFFSMKGNGYKKATVEPLKDDDFYFEDEKEQI
notes: NrdF, beta subunit of the class Ib ribonucleotide reductase of Bacillus subtilis; Fe-NrdF in the SAXS subunit titration, Mn-reconstituted NrdF in cryo-EM; also called Fe-NrdF
[7]
  binding result: binds
[8]
  binding result: binds
